# Patent US8084589B2, “Phosphoramidite nucleoside analogs” (University of Massachusetts, priority 2007, dated 2011)
# Strand notation (5' to 3'): a small letter for the sugar, then the base; units joined by * are phosphorothioate-linked, units joined directly phosphodiester-linked; [ ] holds rarer units or linkages, { } end groups; capitals alone tell only the bases. [TEGam] = internucleoside phosphate triester carrying a triethylene glycol amino linker (free amine, native form); {Y} = hydroxypropyldithiopropyl phosphate linker, HOCH2CH2SSCH2CH2CH2O-P(O)(OH)-; d = 2'-deoxy (DNA)
# Legend:
# [1] = Storage stability of synthon 2 (coupling efficiency on the synthesizer); format: physicochemical; settings: for coupling yield of the monomer: in anhydrous acetonitrile at room temperature, 3 minutes coupling
# Method: Usually the compound was dissolved in anhydrous acetonitrile under argon and was kept on the synthesizer for up to two weeks at room temperature. The coupling yield of the monomer for the 3 minutes coupling duration was 98-99% after 7-8 days, and for the same coupling conditions coupling yield decreased to 90% after additional 10-12 days. Coupling yields were assessed using a DMTr detector reading on the synthesizer.
# [2] = Storage stability of oligonucleotide conjugate in water (HPLC); format: physicochemical; settings: deionized water, −20° C., approximately four months
# Method: A limited stability study of one of the novel oligonucleotide conjugates, VIII, which contained 800CW dye at the 8th nucleoside from the 5′-end (see Table 2), was performed.
# [3] = Melting temperature of oligonucleotide duplexes (UV, FRET loss or dequenching); format: physicochemical; settings: for Melting point, ° C, method: Table 5, method UV
# Method: Watson-Crick base paring properties of the modified oligonucleotides were evaluated by comparison of melting temperatures of a duplex formed between the amino-functionalized oligonucleotide CGG AAA GT*C CCT CAT AGC T (I, SEQ ID NO: 1) and its complementary unmodified oligonucleotide 3′[…] 5′ (Duplex 1, SEQ ID NO:5) and a control, unmodified duplex with the same sequence (Duplex 2). The melting temperatures were almost equal, i.e. 65 and 66° C. for Duplexes 1 and 2, respectively.
# The conjugates were characterized by HPLC analysis, mass spectrometry and UV/VIS spectroscopy. Briefly, spectral measurements were performed using a Cary 50 Bio UV-visible spectrophotometer. Melting temperatures were determined with a step-wise Peltier temperature ramping bath in 2 degree mode in a temperature-controlled cuvette holder. Electrospray mass spectrometry (MS) was performed with a LTQ Linear Ion trap mass spectrometer (Thermo, Inc) with use of a Nanomate (Advion, Inc.) robot. Spectra were obtained in the negative ion mode with 1.8 kV spray voltage and 0.8 PSI back pressure (UMMS Proteomic and Mass Spectrometry Core Facility, University of Massachusetts Medical School, Worcester, Mass.). Sample solutions were adjusted to 75% methanol before MS analysis. The full mass spectra were acquired for 30 seconds from m/z 400-2000 using 2 ms scans and 10 ms maximum injection time.
# The synthesized ODN duplex probes were characterized by comparing melting temperatures of native, non-modified ODN pair to those duplexes prepared by using covalently labeled ODNs.
# The FRET between Cy5.5 and the acceptor on complementary ODN was observed after Cy5.5-ODN3 was incubated with Cy7- or 800CW-linked to ODN2 (see FIGS. 20A-B). […] In the presence of internucleoside phosphate-linked Cy7 on the complementary strand it was observed more than 10 times lower fluorescence of Cy5.5 measured at 700 nm (λex=675 nm) and a 3-fold higher fluorescence of Cy7 (if compared to the duplex formed between Cy7-ODN2 and ODN3), FIGS. 20A-D. The formation of duplexes and reversible FRET effects were further studied in more detail by following sigmoidal dependence of the temperature-dependent increase of Cy5.5 fluorescence in a microcuvette of a spectrofluorometer. These experiments enabled measurement of two parameters: melting temperatures and the overall FRET efficacy (Table 5).
# NF-κB p50 = target: T1, NF-κB p50 (Homo sapiens, UniProt P19838); assay: EMSA of recombinant p50 binding to fluorescent duplexes; settings: both Cy5.5-800CW and Cy5.5-Cy7 donor/acceptor pairs
# T1 sequence (P19838 1-433 limits assumed): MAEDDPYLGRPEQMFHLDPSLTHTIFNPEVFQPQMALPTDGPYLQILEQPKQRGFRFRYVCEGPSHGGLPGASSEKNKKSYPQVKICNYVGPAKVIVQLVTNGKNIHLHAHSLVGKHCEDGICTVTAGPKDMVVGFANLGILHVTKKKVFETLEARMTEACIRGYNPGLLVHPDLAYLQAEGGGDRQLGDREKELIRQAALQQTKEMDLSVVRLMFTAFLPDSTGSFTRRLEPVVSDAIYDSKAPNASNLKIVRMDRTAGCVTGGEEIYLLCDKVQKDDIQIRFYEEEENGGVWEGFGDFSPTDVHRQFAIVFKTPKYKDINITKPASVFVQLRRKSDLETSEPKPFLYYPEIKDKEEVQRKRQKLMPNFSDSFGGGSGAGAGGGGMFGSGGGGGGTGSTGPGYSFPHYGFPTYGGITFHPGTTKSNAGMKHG
# Description: The binding of NF-κB p50 to duplexes was initially followed by using two methods: 1) electrophoretic mobility shift essay (EMSA) in polyacrylamide gels; 2) fluorescence energy transfer loss measurements after adding p50 to the duplex in solution. In the first case the components of the mixture are off equilibrium since the free duplex is separated due to a faster migration in electric field during the analysis. The second method afforded measurements at the equilibrium but the observed fluorescence change values are affected by the background fluorescence due to the presence of the free duplex. […] Fluorescence of both free and bound duplex could be imaged by using a transillumination scanner and CCD camera that detected emitted light at two wavelengths—[…] (FIG. 21A) and 800 nm (FIG. 21B, fused image—FIG. 21C). […] However, by comparing Cy5.5-labeled duplexes (ODN2/Cy5.5-ODN3 and ODN4/Cy5.5-ODN5) it was determined that in the case of full-length binding sites 94% of fluorescence co-migrated with p50, whereas only 63% co-migrated with ODN4/Cy5.5-ODN5 duplex (FIG. 21D) at the saturating concentrations of p50 monomer (200 nM).
# The half-maximal amount of p50 was 238-300 ng (corresponding to approximately 600 nM). […] A similar trend was observed if 800CW dye was used as Cy5.5 fluorescence acceptor and the differences were also significant (p=0.02).
compound,measurement,setting,value
"COc1ccc(C(OC[C@H]2O[C@@H](n3cc(C)c(=O)[nH]c3=O)C[C@@H]2OP(OCCOCCOCCNC(=O)C(F)(F)F)N(C(C)C)C(C)C)(c2ccccc2)c2ccc(OC)cc2)cc1 (stereo partly shown) [synthon 2, 5′-O-DMTr-thymidine-3′-O-(2-(2-(2-trifluoroacetamidoethoxy)-ethoxy)ethyl)-N,N-diisopropylphosphoramidite]",stability in dry acetonitrile,"[1]; dry acetonitrile, on synthesizer, room temperature",stable in dry acetonitrile for at least one week
same,coupling yield of the monomer,[1]; after 7-8 days,98-99%
same,coupling yield of the monomer,[1]; after additional 10-12 days,90%
same,stability of dry monomer on storage,[1]; stored six months at −20° C.,no apparent decrease in coupling efficiency
CGGAAAGT^800CWCCCTCATAGCT [VIII],stability by HPLC analysis,[2],no signs of degradation
I/XIX: non-labelled duplex of I and XIX (chain 1 dCdGdGdAdAdAdGdT[TEGam]dCdCdCdTdCdAdTdAdGdCdT; chain 2 dAdGdCdTdAdTdGdAdGdGdGdAdCdTdTdTdCdCdG-{Y}),"Melting point, ° C., (method)","[3]; Table 3, method UV",64 (UV) ° C.
same,"Melting point, ° C, method",[3],64 (UV) ° C
ODN1/ODN3: non-labeled duplex of ODN1 and ODN3 (chain 1 CGGAAAGTCCCTCATAGCT; chain 2 dAdGdCdTdAdTdGdAdGdGdGdAdCdTdTdTdCdCdG-{Y}; chain 1: unmodified DNA) [reference compound],"Melting point, ° C, method",[3],66 (UV) ° C
"ODN4/ODN5: duplex with truncated NF-κB p50 binding site GGAAAG (chain 1 TGGAAAGCTTTTTACAGTT; chain 2 AACTGTAAAAAGCTTTCCA; listed as DNA, chemistry not fully specified)","Melting point, ° C, method",[3],61 (UV) ° C
same,fluorescence changes in EMSA bands on p50 binding,NF-κB p50,no measurably significant fluorescence changes
